According to patent publication US5153211A, “Spiro-tricyclicaromatic succinimide derivatives as inhibitors of aldose reductase” (Alcon Laboratories, Inc., priority 1991, dated 1992):
Where two headings read alike, the source gives them in different places. Each block holds one molecule with its values, some of them ahead of it.

Experiments:
[1] = molecular target: T1, rat lens aldose reductase (Rattus norvegicus, UniProt P07943); assay: inhibition of rat lens aldose reductase; assay type: biochemical
T1 construct: evaluated against rat lens aldose reductase; from tissue; host or cells: rat lens
Experimental: *IC50 values are based on inhibition of rat lens aldose reductase.
a) P. F. Kador, L. O. Merola and J. H. Kinoshita, Docum. Ophthal. Proc. Series, 18, 117-124 (1979);
b) P. F. Kador, J. H. Kinoshita, W. H. Tung and L. T. Chylack, Jr., Invest. Ophthalmol. Vis. Sci., 19, 980-982 (1980);
c) P. F. Kador, D. Carper and J. H. Kinoshita, Analytical Biochemistry, 114, 53-58 (1981).
Wherein the assay mixture used in the tests containing 0.1M potassium phosphate buffer, pH 6.2, 0.2 mM nictoinamide adenine dinucleotide phosphate (NADPH), 10 mM D,L-glyceraldehyde, and an appropriate volume of the enzyme preparation, thermostated at 25° C. in the cell compartment of a spectrophotometer. These conditions are identical to those published in references (a), (b) and (c), except that a larger NADPH concentration was employed. […] The control sample contained no added inhibitor. In order to measure aldose reductase inhibition activity, varying concentrations of the inhibitor examples set forth below were added to the standard incubation mixture. The control, containing the enzyme and NADPH, gave a very small, but measurable rate; thus, it served as the blank against which to measure the glyceraldehyde-dependent rate of NADPH oxidation. The tests were conducted with human placental aldose reductase enzyme. The results of the tests are the product of multiple assays. […] A test compound is considered active if it inhibits or reduces human aldose reductase activity at 1×10^-4 M concentration or less. The following list is provided as a representative sample of the biological activity of the spiro-tricyclic derivatives of the present invention.
According to the procedures of Kador, Merola and Kinoshite, Docum. Ophthal. Proc. Series, 18 (1979) 117 and Kador and Sharpless, Biophysical Chemistry, 8 (1978) 81 the inhibition exerted by examples of the present invention where evaluated against rat lens aldose reductase. Otherwise, the inhibitor assay is identical to that employed against human aldose reductase in Example XXVI. Representative rat lens aldose reductase inhibition is presented in terms of the concentration of test compound required to reduce rat lens aldose reductase enzyme activity by 50%. A test compound is considered active if it inhibits or reduces rat lens aldose reductase activity at 1×10^-4 M concentration or less.

[2] = system: rat lenses in 30 mM xylose culture; assay: rat lens culture assay, 30 mM xylose cataract model; assay type: cell-based, Sprague-Dawley rats; conditions: for lens opacification / lens wet weight increase: 7.5×10^-7 M in the culture media, 30 mM xylose, 18 h; for activity at 0.75 µM: Rattus norvegicus, after 18 h 30 mM xylose culture, compound 7.5 × 10^-7 M, % of control contralateral lens
Experimental: Aldose reductase inhibitor potency may be evaluated in rat lens culture assays where 30 mM of glucose, galactose or xylose can be used in culture to induce a `sugar` cataract. In addition to monitoring lens clarity, certain biochemical radiolabeled markers (e.g., choline --^3 H and ^86 Rb) are employed to measure lens function. See Obazawa, Merola and Kinoshita, Invest. Ophthalmol., 13 (1974) 204 and Jernigan, Kador and Kinoshita, Exp. Eye Res., 32 (1981) 709.
The general procedure is as follows: a) Sprague-Dawley rats of 75-100 g body weight are sacrificed and the lenses removed immediately; b) the contralateral lens of the pair of lenses is employed as untreated control lens; c) the test lens is cultured in TC-199 culture media in the presence of 30 mM xylose, 30 mM xylose plus a selected concentration of test compound or a selected concentration of test compound; d) the contralateral control lens is treated identical to the test lens except no test compound or xylose is included; e) the matched lens pairs are cultured for 18 h in a CO2 incubator; f) the lenses are compared morphologically and weighed. All lenses, control and test groups, are allowed to preincubate for 1 h in respective control media or drug control media prior to transfer to xylose media or xylose-drug media. In those cases where radiolabelled markers are to be measured, the lenses are treated as aforementioned except the radiolabelled marker(s) are added to the culture at four hours before harvesting. Radiolabelled markers include choline --^3 H ([…] available from New England Nuclear), AIBA --^14 C (α-[1-^14 C]-(CH3)2 C(NH2)COOH available from New England Nuclear) and ^86 Rb. The effect of xylose on lens uptake of ^86 Rb, lens uptake of amino acid (AIBA --^14 C) and lens uptake of choline --^3 H and the effectiveness of representative compounds of the present invention to preserve normal lens morphology is reported here.
The effect of 30 mM xylose and 30 mM xylose plus selected concentrations of test compound on radioactivity ratio is expressed as L/M % of control. L/M % of control is defined as the test lens radioactivity divided by culture media radioactivity as a percentage of the control contralateral lens radioactivity to media radioactivity ratio under identical test conditions but always without xylose or test compound in the control. The effect of 30 mM xylose in the culture media gives a reproducible deleterious effect on the lens as measured by the various L/M %. Furthermore, after incubation of the lens in 30 mM xylose in the TC-199 culture media, the lens gains 20% weight (mostly water weight increase based on dry lens weight measurements) and becomes opaque in the cortex of the lens. Each experiment requires 20-40 pairs of lenses to determine the potency of a selected aldose reductase inhibitor.

galactosemic rats = conditions: per oral, once daily, cited from earlier work
[3] = system: chronic streptozotocin-induced rats; conditions: 8 mg/kg per oral per day; cited from earlier work
[4] = based on inhibition of rat lens aldose reductase, read-out: IC50
[5] = read-out: L/M% = Lens uptake of 86Rb
[6] = read-out: L/M% = Lens uptake of AIBA-14C (amino acid)
[7] = read-out: L/M% = Lens uptake of choline-3H

SMILES: COc1cc(F)cc2c1-c1ccc(F)cc1C21CC(=O)NC1=O (centres unmarked) [Compound 17, 2,7-DIFLUORO-4-METHOXYSPIRO[9H-FLUORENE-9,3'-PYRROLIDINE]-2',5'-DIONE]
IC50 [1, 4]: 4.8 nM

SMILES: O=C1NC(=O)C2(S1)c1ccccc1-c1ccc(F)cc12 (centres unmarked) [C, Spiro-(2-fluoro-9H-fluoren-9,5'-thiazolidine)-2',4'-dione]
lens opacification [2]: prevented
lens wet weight increase [2]: prevented
activity at 0.75 µM [2, 5]: 70%
activity at 0.75 µM [2, 6]: 58%
activity at 0.75 µM [2, 7]: 77%

SMILES: O=C1NC(=O)C2(S1)c1cc(F)ccc1-c1ccc(F)cc12 [D, Spiro-(2,7-difluoro-9H-fluoren-9,5'-thiazolidine)-2',4'-dione]
lens opacification [2]: prevented
lens wet weight increase [2]: prevented
activity at 0.75 µM [2, 5]: 83%
activity at 0.75 µM [2, 6]: 85%
activity at 0.75 µM [2, 7]: 109%

SMILES: O=C1NC(=O)C2(N1)c1cc(F)ccc1-c1ccc(F)cc12 [B, Spiro-(2,7-difluoro-9H-fluoren-9,4'-imidazolidine)-2',5'-dione, reference compound]
preventing cataract in galactosemic rats (galactosemic rats; 0.4 mg/kg): wholly effective
lens opacification [2]: prevented
lens wet weight increase [2]: prevented
activity at 0.75 µM [2, 5]: 82%
activity at 0.75 µM [2, 6]: 87%
activity at 0.75 µM [2, 7]: 105%

SMILES: O=C1NC(=O)C2(S1)c1cc(F)cc(F)c1-c1c(F)cc(F)cc12 [Compound 7, 2,4,5,7-TETRAFLUOROSPIRO[9H-FLUORENE-9,5'-THIAZOLIDINE]-2',4'-DIONE]
IC50 [1, 4]: 17 nM

SMILES: O=C1NC(=O)C2(N1)c1ccccc1-c1ccc(F)cc12 (centres unmarked) [Compound A, Spiro-(-2-fluoro-9H-fluoren-9,4'-imidazolidine)-2',5'-dione, reference compound]
preventing cataract in galactosemic rats (galactosemic rats; 1.26 mg/kg): wholly effective
lens opacification [2]: prevented
lens wet weight increase [2]: prevented
activity at 0.75 µM [2, 5]: 55%
activity at 0.75 µM [2, 6]: 50%
activity at 0.75 µM [2, 7]: 73%
cataract in chronic streptozotocin-induced rats [3]: prevent cataract
motor nerve conduction velocity in chronic streptozotocin-induced rats [3]: significantly preserve

Continued, values first:

IC50 [1, 4]: 2.8 nM
SMILES: Cc1cc(F)cc2c1-c1ccc(F)cc1C21CC(=O)NC1=O (centres unmarked) [Compound 3, 2,7-DIFLUORO-4-METHYLSPIRO[9H-FLUORENE-9,3'-PYRROLIDINE]-2',5'-DIONE]

IC50 [1, 4]: 12.8 nM
SMILES: Cc1cc(F)cc2c1-c1ccc(F)cc1C21NC(=O)NC1=O (centres unmarked) [Compound 11, 2,7-DIFLUORO-4-METHYLSPIRO[9H-FLUORENE-9,4'-IMIDAZOLIDINE]-2',5'-DIONE]

IC50 [1, 4]: 9.4 nM
SMILES: COc1cc(F)cc2c1-c1ccc(F)cc1C21NC(=O)NC1=O (centres unmarked) [Compound 16, 2,7-DIFLUORO-4-METHOXYSPIRO[9H-FLUORENE-9,4'-IMIDAZOLIDINE]-2',5'-DIONE]

IC50 [1, 4]: 17.5 nM
SMILES: CSc1cc(F)cc2c1-c1ccc(F)cc1C21NC(=O)NC1=O (centres unmarked) [Compound 34, 2,7-DIFLUORO-4-METHYLTHIOSPIRO[9H-FLUORENE-9,4'-IMIDAZOLIDINE]-2',5'-DIONE]

IC50 [1, 4]: 12 nM
SMILES: O=C1NC(=O)C2(N1)c1cc(F)cc(F)c1-c1c(F)cc(F)cc12 [Compound 9, 2,4,5,7-TETRAFLUOROSPIRO[9H-FLUORENE-9,4'-IMIDAZOLIDINE]-2',5'-DIONE]

IC50 [1, 4]: 16.1 nM
SMILES: Cc1cc(F)cc2c1-c1ncc(F)cc1C21NC(=O)NC1=O (centres unmarked) [Compound 43, 3,7-DIFLUORO-9-METHYLSPIRO[5H-INDENO[1,2-b]PYRIDIN-5,4'-IMIDAZOLIDINE]-2',5'-DIONE]

IC50 [1, 4]: 48 nM
SMILES: Cc1ccc2c(n1)-c1c(F)cc(F)cc1C21NC(=O)NC1=O (centres unmarked) [Compound 22, 7,9-DIFLUORO-2-METHYLSPIRO[5H-INDENO[1,2-b]PYRIDIN-5,4'-IMIDAZOLIDINE]-2',5'-DIONE]

IC50 ([1]; based on the inhibition of rat lens aldose reductase, read-out: IC50 value): 7.8 nM
SMILES: COc1cc(F)cc2c1-c1c(OC)cc(F)cc1C21NC(=O)NC1=O [2,7-difluoro-4,5-dimethoxyspiro (9H-fluorene-9,4'-imidazolidine)-2',5'-dione]

IC50 [1, 4]: 11300 nM
SMILES: COc1cc(F)cc2c1-c1c(F)cc(F)cc1C21NC(=O)NC1=O (centres unmarked) [Compound 28, 2,4,7-TRIFLUORO-5-METHOXYSPIRO[9H-FLUORENE-9,4'-IMIDAZOLIDINE]-2',5'-DIONE]
